According to patent publication US9902736B2, “1-oxo/acylation-14-acylated oridonin derivative, preparation method therefor and application thereof” (HANGZHOU BENSHENG PHARMACEUTICAL CO., LTD., priority 2012, dated 2018):
≈ marks a conversion by molar mass, not a printed value.

How the values were obtained:
K562/ADR = experiment: Leukemia cell growth inhibition, MTT, 72 h; format: cell-based; conditions: Homo sapiens
Procedure, shortened: (§1)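 MTT read-out of viable cell concentration after 72 hours of exposure at 37° C under 5% CO2. Compounds were dosed at several concentrations one day after plating 6000 cells per well.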

Kasumi-1 = experiment: Leukemia cell growth inhibition, MTT, 72 h; format: cell-based; conditions: Homo sapiens
Procedure, shortened: as §1

H9 = experiment: Leukemia cell growth inhibition, MTT, 72 h; format: cell-based, human; conditions: Homo sapiens, H9; 72 h, MTT
Procedure, shortened: as §1

Jurkat = experiment: Leukemia cell growth inhibition, MTT, 72 h; format: cell-based, human; conditions: Homo sapiens, Jurkat; 72 h, MTT
Procedure, shortened: as §1

NB4 = experiment: Leukemia cell growth inhibition, MTT, 72 h; format: cell-based, human; conditions: Homo sapiens, NB-4; 72 h, MTT
Procedure, shortened: as §1

RPMI 8226 = experiment: Multiple myeloma cell growth inhibition, MTT, 72 h; format: cell-based; conditions: Homo sapiens
Procedure, shortened: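 Growth inhibition by MTT after 72 h drug exposure (37 °C, 5% CO2) over a concentration range of oridonin derivatives. RPMI 8226 cells plated at 6000 per well and dosed the following day.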

CNE = experiment: Solid tumor cell growth inhibition, MTT, 72 h; format: cell-based, human; conditions: for IC50 / IC90: Homo sapiens, CNE, 72 h, MTT
Procedure, shortened: (§2)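 Viable cell concentration served as the readout. Cells (6000 per well) grown in DMEM High Glucose containing 10% FBS received the derivatives at several concentrations following an initial day of culture at 37° C, 5% CO2.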

Hela = experiment: Solid tumor cell growth inhibition, MTT, 72 h; format: cell-based, human; conditions: Homo sapiens, HeLa; 72 h, MTT
Procedure, shortened: as §2

Hep-2 = experiment: Solid tumor cell growth inhibition, MTT, 72 h; format: cell-based, human; conditions: Homo sapiens, HEp-2; 72 h, MTT
Procedure, shortened: as §2

MGC-803 = experiment: Solid tumor cell growth inhibition, MTT, 72 h; format: cell-based, human; conditions: Homo sapiens, MGC-803; 72 h, MTT
Procedure, shortened: as §2

A549 = experiment: Solid tumor cell growth inhibition, MTT, 72 h; format: cell-based; conditions: Homo sapiens
Procedure, shortened: as §2

Becap-37 = experiment: Solid tumor cell growth inhibition, MTT, 72 h; format: cell-based; conditions: Homo sapiens
Procedure, shortened: as §2

CaEs-17 = experiment: Solid tumor cell growth inhibition, MTT, 72 h; format: cell-based; conditions: Homo sapiens, CaEs17
Procedure, shortened: as §2

Hep G2 = experiment: Solid tumor cell growth inhibition, MTT, 72 h; format: cell-based; conditions: Homo sapiens, HepG2
Procedure, shortened: as §2

MG-63 = experiment: Solid tumor cell growth inhibition, MTT, 72 h; format: cell-based; conditions: Homo sapiens
Procedure, shortened: as §2

PANC-1 = experiment: Solid tumor cell growth inhibition, MTT, 72 h; format: cell-based; conditions: Homo sapiens
Procedure, shortened: as §2

PC-3 = experiment: Solid tumor cell growth inhibition, MTT, 72 h; format: cell-based; conditions: Homo sapiens
Procedure, shortened: as §2

RKO = experiment: Solid tumor cell growth inhibition, MTT, 72 h; format: cell-based; conditions: Homo sapiens
Procedure, shortened: as §2

SK-OV-3 = experiment: Solid tumor cell growth inhibition, MTT, 72 h; format: cell-based; conditions: Homo sapiens, SK-OV-3, 72 h, MTT; for IC50: read-out: IC50 SK-OV-3; for IC90: read-out: IC90 SK-OV-3
Procedure, shortened: as §2

U87-MG = experiment: Solid tumor cell growth inhibition, MTT, 72 h; format: cell-based; conditions: Homo sapiens, U-87 MG
Procedure, shortened: as §2

SMILES: C=C1C(=O)[C@]23[C@H](OC(=O)c4ccc(C)cc4)[C@H]1CC[C@H]2[C@@]12CO[C@@]3(O)[C@@H](O)[C@@H]1C(C)(C)CCC2=O [BS-OR-004]
- IC50 (K562/ADR): 0.41 µg/mL (≈ 0.853 µM)
- IC90 (K562/ADR): 1.72 µg/mL (≈ 3.58 µM)
- IC50 (Kasumi-1): 0.41 µg/mL (≈ 0.853 µM)
- IC90 (Kasumi-1): 1.68 µg/mL (≈ 3.5 µM)
- IC50 (H9): 0.34 µg/mL (≈ 0.708 µM)
- IC90 (H9): 0.83 µg/mL (≈ 1.73 µM)
- IC50 (Jurkat): 0.62 µg/mL (≈ 1.29 µM)
- IC90 (Jurkat): 2.7 µg/mL (≈ 5.62 µM)
- IC50 (NB4): 0.13 µg/mL (≈ 0.271 µM)
- IC90 (NB4): 0.76 µg/mL (≈ 1.58 µM)
- IC50 (RPMI 8226): 0.31 µg/mL (≈ 0.645 µM)
- IC90 (RPMI 8226): 1.77 µg/mL (≈ 3.68 µM)
- IC50 (CNE): 0.95 µg/mL (≈ 1.98 µM)
- IC90 (CNE): 4.67 µg/mL (≈ 9.72 µM)
- anti-CNE activity increased (CNE; in comparison with oridonin): ~6 fold
- IC50 (Hela): 1.28 µg/mL (≈ 2.66 µM)
- IC90 (Hela): 3.87 µg/mL (≈ 8.05 µM)
- IC50 (Hep-2): 1.38 µg/mL (≈ 2.87 µM)
- IC90 (Hep-2): 6.79 µg/mL (≈ 14.1 µM)
- IC50 (MGC-803): 0.65 µg/mL (≈ 1.35 µM)
- IC90 (MGC-803): 4.88 µg/mL (≈ 10.2 µM)
- IC50 (A549): 1.71 µg/mL (≈ 3.56 µM)
- IC90 (A549): 4.9 µg/mL (≈ 10.2 µM)
- IC50 (Becap-37): 0.66 µg/mL (≈ 1.37 µM)
- IC90 (Becap-37): 3.3 µg/mL (≈ 6.87 µM)
- IC50 (CaEs-17): 0.88 µg/mL (≈ 1.83 µM)
- IC90 (CaEs-17): 4.58 µg/mL (≈ 9.53 µM)
- IC50 (Hep G2): 0.85 µg/mL (≈ 1.77 µM)
- IC90 (Hep G2): 7.84 µg/mL (≈ 16.3 µM)
- IC50 (MG-63): 0.33 µg/mL (≈ 0.687 µM)
- IC90 (MG-63): 0.87 µg/mL (≈ 1.81 µM)
- IC50 (PANC-1): 1.31 µg/mL (≈ 2.73 µM)
- IC90 (PANC-1): 8.24 µg/mL (≈ 17.1 µM)
- IC50 (PC-3): 1.45 µg/mL (≈ 3.02 µM)
- IC90 (PC-3): 3.94 µg/mL (≈ 8.2 µM)
- IC50 (RKO): 0.31 µg/mL (≈ 0.645 µM)
- IC90 (RKO): 0.87 µg/mL (≈ 1.81 µM)
- IC50 (SK-OV-3): 1.45 µg/mL (≈ 3.02 µM)
- IC90 (SK-OV-3): 3.94 µg/mL (≈ 8.2 µM)
- IC50 (U87-MG): 0.8 µg/mL (≈ 1.66 µM)
- IC90 (U87-MG): 3.24 µg/mL (≈ 6.74 µM)

SMILES: C=C1C(=O)[C@]23[C@H](OC(=O)/C=C/c4ccccc4)[C@H]1CC[C@H]2[C@@]12CO[C@@]3(O)[C@@H](O)[C@@H]1C(C)(C)CC[C@@H]2OC(C)=O [BS-OR-094]
- IC50 (K562/ADR): 0.7 µg/mL (≈ 1.3 µM)
- IC90 (K562/ADR): 2.17 µg/mL (≈ 4.04 µM)
- IC50 (Kasumi-1): 0.72 µg/mL (≈ 1.34 µM)
- IC90 (Kasumi-1): 1.72 µg/mL (≈ 3.21 µM)
- IC50 (H9): 0.19 µg/mL (≈ 0.354 µM)
- IC90 (H9): 0.49 µg/mL (≈ 0.913 µM)
- IC50 (Jurkat): 0.65 µg/mL (≈ 1.21 µM)
- IC90 (Jurkat): 2.68 µg/mL (≈ 4.99 µM)
- IC50 (NB4): 0.1 µg/mL (≈ 0.186 µM)
- IC90 (NB4): 0.49 µg/mL (≈ 0.913 µM)
- IC50 (RPMI 8226): 0.49 µg/mL (≈ 0.913 µM)
- IC90 (RPMI 8226): 1.75 µg/mL (≈ 3.26 µM)
- IC50 (CNE): 1.32 µg/mL (≈ 2.46 µM)
- IC90 (CNE): 5.04 µg/mL (≈ 9.39 µM)
- IC50 (Hela): 1.54 µg/mL (≈ 2.87 µM)
- IC90 (Hela): 4.45 µg/mL (≈ 8.29 µM)
- IC50 (Hep-2): 1.68 µg/mL (≈ 3.13 µM)
- IC90 (Hep-2): 7.46 µg/mL (≈ 13.9 µM)
- IC50 (MGC-803): 1.39 µg/mL (≈ 2.59 µM)
- IC90 (MGC-803): 12.1 µg/mL (≈ 22.5 µM)
- IC50 (A549): 2.87 µg/mL (≈ 5.35 µM)
- IC90 (A549): 9.95 µg/mL (≈ 18.5 µM)
- IC50 (Becap-37): 1.15 µg/mL (≈ 2.14 µM)
- IC90 (Becap-37): 3.31 µg/mL (≈ 6.17 µM)
- IC50 (CaEs-17): 0.94 µg/mL (≈ 1.75 µM)
- IC90 (CaEs-17): 6.26 µg/mL (≈ 11.7 µM)
- IC50 (Hep G2): 1.42 µg/mL (≈ 2.65 µM)
- IC90 (Hep G2): 7.47 µg/mL (≈ 13.9 µM)
- IC50 (MG-63): 0.47 µg/mL (≈ 0.876 µM)
- IC90 (MG-63): 1 µg/mL (≈ 1.86 µM)
- IC50 (PANC-1): 1.82 µg/mL (≈ 3.39 µM)
- IC90 (PANC-1): 9.91 µg/mL (≈ 18.5 µM)
- IC50 (PC-3): 1.66 µg/mL (≈ 3.09 µM)
- IC90 (PC-3): 4.52 µg/mL (≈ 8.42 µM)
- IC50 (RKO): 0.38 µg/mL (≈ 0.708 µM)
- IC90 (RKO): 0.75 µg/mL (≈ 1.4 µM)
- IC50 (SK-OV-3): 1.66 µg/mL (≈ 3.09 µM)
- IC90 (SK-OV-3): 4.52 µg/mL (≈ 8.42 µM)
- IC50 (U87-MG): 0.6 µg/mL (≈ 1.12 µM)
- IC90 (U87-MG): 1.86 µg/mL (≈ 3.47 µM)

SMILES: C=C1C(=O)[C@]23[C@H](OC(=O)C4CC4)[C@H]1CC[C@H]2[C@@]12CO[C@@]3(O)[C@@H](O)[C@@H]1C(C)(C)CCC2=O [BS-OR-017]
- IC50 (K562/ADR): 0.52 µg/mL (≈ 1.21 µM)
- IC90 (K562/ADR): 1.9 µg/mL (≈ 4.41 µM)
- IC50 (Kasumi-1): 0.69 µg/mL (≈ 1.6 µM)
- IC90 (Kasumi-1): 1.7 µg/mL (≈ 3.95 µM)
- IC50 (H9): 0.53 µg/mL (≈ 1.23 µM)
- IC90 (H9): 0.98 µg/mL (≈ 2.28 µM)
- IC50 (Jurkat): 0.92 µg/mL (≈ 2.14 µM)
- IC90 (Jurkat): 5.63 µg/mL (≈ 13.1 µM)
- IC50 (NB4): 0.14 µg/mL (≈ 0.325 µM)
- IC90 (NB4): 0.82 µg/mL (≈ 1.9 µM)
- IC50 (RPMI 8226): 0.5 µg/mL (≈ 1.16 µM)
- IC90 (RPMI 8226): 1.88 µg/mL (≈ 4.37 µM)
- IC50 (CNE): 1.13 µg/mL (≈ 2.62 µM)
- IC90 (CNE): 4.96 µg/mL (≈ 11.5 µM)
- IC50 (Hela): 1.35 µg/mL (≈ 3.14 µM)
- IC90 (Hela): 3.86 µg/mL (≈ 8.97 µM)
- IC50 (Hep-2): 1.62 µg/mL (≈ 3.76 µM)
- IC90 (Hep-2): 6.93 µg/mL (≈ 16.1 µM)
- IC50 (MGC-803): 0.91 µg/mL (≈ 2.11 µM)
- IC90 (MGC-803): 4.16 µg/mL (≈ 9.66 µM)
- IC50 (A549): 2.93 µg/mL (≈ 6.81 µM)
- IC90 (A549): 6.29 µg/mL (≈ 14.6 µM)
- IC50 (Becap-37): 1.13 µg/mL (≈ 2.62 µM)
- IC90 (Becap-37): 4.58 µg/mL (≈ 10.6 µM)
- IC50 (CaEs-17): 1.32 µg/mL (≈ 3.07 µM)
- IC90 (CaEs-17): 5.89 µg/mL (≈ 13.7 µM)
- IC50 (Hep G2): 1.61 µg/mL (≈ 3.74 µM)
- IC90 (Hep G2): 8.04 µg/mL (≈ 18.7 µM)
- IC50 (MG-63): 0.47 µg/mL (≈ 1.09 µM)
- IC90 (MG-63): 1.8 µg/mL (≈ 4.18 µM)
- IC50 (PANC-1): 1.96 µg/mL (≈ 4.55 µM)
- IC90 (PANC-1): 5.76 µg/mL (≈ 13.4 µM)
- IC50 (PC-3): 1.99 µg/mL (≈ 4.62 µM)
- IC90 (PC-3): 3.92 µg/mL (≈ 9.11 µM)
- IC50 (RKO): 0.6 µg/mL (≈ 1.39 µM)
- IC90 (RKO): 1.91 µg/mL (≈ 4.44 µM)
- IC50 (SK-OV-3): 1.99 µg/mL (≈ 4.62 µM)
- IC90 (SK-OV-3): 3.92 µg/mL (≈ 9.11 µM)
- IC50 (U87-MG): 1.24 µg/mL (≈ 2.88 µM)
- IC90 (U87-MG): 3.64 µg/mL (≈ 8.46 µM)
